How the values were obtained:
[1] = target: Cyclin-dependent kinase 2 (Homo sapiens, UniProt P24941); test: Inhibition of CDK-2 (unknown origin)
CHO = test: Antiproliferative activity against CHO cells assessed as reduction in cell proliferation by MTT assay; format: functional, cell-based; conditions: Cricetulus griseus

SMILES: Nc1nonc1-n1nnc(-c2nnc(-c3ccncc3)[nH]2)c1CN1CCCCC1
- IC50 [1]: > 250000 nM
- EC50 (CHO): 1850 nM

Reference: ChEMBL document CHEMBL5236544, “Furazans in Medicinal Chemistry” (J Med Chem, 2021)
